Common to all, as to type: cell-based, murine
The test system of assay [1] is NCSC populations. In words: Serial subcloning and clonogenic differentiation of secondary NCSC. Set-up: G (glial only) colonies / Sm (smooth muscle only) colonies / G + Sm colonies: unit not given here. To be noted: for G (glial only) colonies / G + Sm colonies / N (neurons only) colonies / N + G + Sm (trifatent) colonies / N + G colonies / N + Sm colonies / Sm (smooth muscle only) colonies: differentiation profile of secondary NCSC clones; for G (glial only) colonies / G + Sm colonies / N (neurons only) colonies / N + G + Sm (trifatent) colonies / N + G colonies / N + Sm colonies / Sm (smooth muscle only) colonies / Secondary NSSC/ Founder: mean ± SD of three experiments; for clones that were trifatent (neurons, glial, and smooth muscle progeny): secondary clones from treated founder clones; for Secondary NSSC/ Founder: secondary stem cells from NCSC founders after ten days of expansion. On the procedure: (§1) Clonogenic assays were performed as described (Stemple et al., 1992, Cell 71:973-985). Briefly, populations of murine NCSC were plated at a clonal density and maintained for a maximum of 14 days in Morrison media supplemented with 15% chick embryo extract (Morrison et al., 1999, Cell 96:737-749). The resulting clones were fixed in an acetic acid:ethanol solution (2:1) and stained with antibodies against peripherin (Chemicon) to detect neurons, smooth muscle actin (Sigma) to detect myofibroblasts, and GFAP (Chemicon) to detect Schwann cells. Clones were scored based on the appearance of just one phenotypic representative. The number and percentage of clones containing neurons only (N), Schwann cells only (S), myofibroblasts only (M), N+S, N+M, N+S+M, and S+M were scored at day 14 unless otherwise stated. The production of each representative phenotype in each individual clone was also scored to complement the clonal population assay.
In order to generate secondary NCSC populations, founder clones originating from differentiating E10 clones at distinct time points during NCSC differentiation (days 2 through 18) were treated with trypsin and replated at a cell clonal density using methods previously described (Kubu et al., 2000, Genomics 70:150-152). The resulting cells were subjected to immunofluorescence microscopy using both p75^+ and P0^− antibodies (Kubu et al., 2000, Genomics 70:150-152) and the p75^+/P0^− cells identified as putative stem cells. All non-p75^+/P0^− cells were removed from the dish with a tungsten needle. The cultures of secondary NCSC clones were subjected to the clonogenic assay as described above.

Assay [2] relates to cortical neurospheres. In words: Cortical neurosphere model, secondary sphere formation. To be noted: for F/SP × 10^2 / Cells/Founder (F) / Secondary Spheres (SP): at day 10; for Cells/Founder (F) / Secondary Spheres (SP): mean ± SD of three experiments; for secondary spheres per primary sphere: primary spheres grown 2 weeks with factor, secondary spheres in standard media. The source says: Murine E13 cerebral cortices were dissected, the ventricular zone isolated, dissected free of the meninges and utilized as a source for the generation of clonal neurspheres. The resulting cells were dispersed by aspiration to produce single cells and cells expressing the […], CD24 as previously described (Rietze et al., 2001), and peanut agglutinin antigen (PNA) were sorted using a FASC Vantage SE cell sorter at a low gate (CD24^low/PNA^low), and the cells were subjected to immunofluoresence microscopy using an antibody against CD24 (Rietze et al., 2001, Nature 412:736-739). Double-positive cells (2×10^3 /ml) were plated in suspension as described (Reynolds et al., 1992, J. Neurosci. 12:4565-4574; Reynolds et al., 1992, Science 255:1707-1710) and secondary neurospheres generated 14 days later by isolating single spheres followed by trypsin digestion of each sphere. Cells obtained from the sphere were placed in suspension culture at a clonal cell seed density and colonies selected.
The E14 prefrontal ventricular zone was dissected and plated at a clonal neurosphere-forming density in the presence of either sJ1, sDl1, thrombin, TRAP or no supplementation. After 2 weeks, the clones were dissociated to single cells and secondary spheres were generated using standard media with no supplementation (Reynolds et al., 1992, J. Neurosci. 12:4565-4574).
Secondary spheres (SP) are formed from the dissociation of founder (F) spheres. The data presented are the number of colonies (mean ± SD of three experiments). (*=p#0.05).

Assay [3] deals with NCSC populations. The assay can be described thus: Clonogenic differentiation of primary NCSC clones (differentiation markers, GFAP immunoreactivity). To be noted: for NCSC clones not expressing gliogenic or neurogenic differentiation markers: after 7 days of expansion. On the procedure: as §1
Instead of examining the NCSC progeny after 14 days, developing clones were examined beginning at day 2 in order to determine the time period when gliogenic differentiation was initiated.
Specifically, clonogenic differentiation and serial subcloning assays were performed using NCSC clones incubated with either thrombin, sDl1, sJ1 or TRAP.

For assay [4], the system named is FGF1.A transcript. The assay can be described thus: RT-PCR analysis of FGF1.A mRNA in NCSC. Conditions: 48 hours; 7.5 nM sJ1, 5.0 nM sDl1, 10 μg/ml α-thrombin or 5 μg/ml TRAP.
For assay [5], the system named is Nestin, Nucleostemin, and Bmi1 transcripts. In words: RT-PCR of stem cell marker transcripts. Conditions: for levels of Nestin, Nucleostemin and Bmi1 transcripts: p75+/P0- neural crest stem cells, 24 and 48 hours; for relative expression of Nestin, Nucleostemin and Bmi1 transcripts: primary and secondary neurosphere cultures. On the procedure: RT-PCR was performed with 1 μg RNA using the Platinum Taq One Step RT-PCR kit (Invitrogen) as follows: RT (30 minutes at 50° C.), PCR (40 cycles at 94° C. for 15 seconds, at 58° C. for 30 seconds and 72° C. for 1 minute). All amplified cDNA was visualized with ethidium bromide followed by 1.5% agarose gel electrophoresis. RT-PCR analysis of fgf and gapdh was performed as previously described elsewhere herein. RT-PCR analysis of stem cell RNA was performed as previously described (Verdi et al., 1994, Neuron 13:1359-1372; Verdi et al., 1996, Neuron 16:515-527) using primers generating amplification products of Nucleostemin from 894 to 1304 of the mouse cDNA (sense: Nucleostemin 894 5′-CAAATGTGGGGAAAAGCAGTGTCA-3′ [SEQ ID NO:34] and antisense: Nucleostemin 1304 5′-GCAGGGGGATGGCAATAGTAACC-3′ [SEQ ID NO:35]); Bmi1 from 242 to 632 of mouse cDNA (sense: Bmi 242 5′-AATTAGTCCCAGGGCTTTTCAA-3′ [SEQ ID NO:36] and antisense: Bmi 632 5′-GGGCCATTTCTTCTCCAGGTAT-3′ [SEQ ID NO:37]), and Nestin from 320-748 (sense: Nestin 320 5′-CA ACC TTG CCG AAG AGC TGG-3′ [SEQ ID NO:38] and antisense: Nestin 720 5′-TCTAAGCGACTCTCCGAGCGC-3′ [SEQ ID NO:39]). Each reaction product was measured as a ratio relative to the amplification product of actin and samples were run in triplicate. All RT-PCR experiments were performed at least three times from separate stem cell isolations. Dual Luciferase Reporter Assay

Marks after values point to notes of the source that are not given here.

As to thrombin, in assay [1], the “G (glial only) colonies” value came to 0 ± 0, the “G + Sm colonies” value worked out at 2.0 ± 2.1, the “N (neurons only) colonies” value stood at 0 and the “N + G + Sm (trifatent) colonies” value came to 86.8 ± 2.1. In addition, in assay [1], the “N + G colonies” value is listed as 3.93 ± 3.8; the “N + Sm colonies” value was determined as 4.5 ± 2.1; the “Sm (smooth muscle only) colonies” value came out at 2.6 ± 1.01; the “clones that were trifatent (neurons, glial, and smooth muscle progeny)” value (“clones that were trifatent” for short) is 86.8±2.1%. Also, the “Secondary NSSC/ Founder” value in assay [1] amounted to 36.8 ± 6.3. In addition, in assay [2], the “F/SP × 10^2” value is listed as 13%*, the “Cells/Founder (F)” value is given as 488 ± 166*, the “Secondary Spheres (SP)” value was 64 ± 11 and the “secondary spheres per primary sphere” value is recorded as 55±14. In addition, in assay [3], the “NCSC clones not expressing gliogenic or neurogenic differentiation markers” value amounted to 75±11%. Also, the “expression of the FGF1.A transcript in NCSC” value (shortened to “expression … in NCSC”) in assay [4] is given as “induced the expression of the FGF1.A transcript”. For the same molecule, in assay [5], the “levels of Nestin, Nucleostemin and Bmi1 transcripts” value (“levels of Nestin” below) is given as “no significant change”; the “relative expression of Nestin, Nucleostemin and Bmi1 transcripts” value was “elevated”.
As for “sJ1: Soluble Jagged1, amino acid residues about 1 to 1067 (SEQ ID NO:3) of full-length human Jagged1”, in assay [1], the “G (glial only) colonies” value is listed as 7.8 ± 1.4, the “G + Sm colonies” value is 3.4 ± 2.8, the “N (neurons only) colonies” value is given as 0 and the “N + G + Sm (trifatent) colonies” value was 74.1 ± 9.1. Further, in assay [1], the “N + G colonies” value is recorded as 7.0 ± 5.6; the “N + Sm colonies” value worked out at 1.5 ± 1.7; the “Sm (smooth muscle only) colonies” value worked out at 6.2 ± 1.0; the “clones that were trifatent” value came to 74.1±9%. In addition, the “Secondary NSSC/ Founder” value in assay [1] was 26.2 ± 6. In assay [2], the “F/SP × 10^2” value turned out to be 10%*, the “Cells/Founder (F)” value is listed as 527 ± 170*, the “Secondary Spheres (SP)” value is listed as 55 ± 14 and the “secondary spheres per primary sphere” value turned out to be 64±11. For the same molecule, the “NCSC clones not expressing gliogenic or neurogenic differentiation markers” value in assay [3] is recorded as 84±7%. In assay [3] (at day 7), the “percentage of the colony expressing the glial-specific protein (GFAP)” value is 23±5. For the same molecule, the “gliogenic differentiation of NCSC” value in assay [3] (two week differentiation assay) is “capable of inducing gliogenic differentiation of the NCSC population over the two week period”. Besides, the “expression … in NCSC” value in assay [4] was “induced the expression of the FGF1.A transcript”. Also, in assay [5], the “levels of Nestin” value was “no significant change”; the “relative expression of Nestin, Nucleostemin and Bmi1 transcripts” value was “elevated”.

B1: sDl1: soluble non-transmembrane form (extracellular domain) of the Notch ligand Delta1 (protein)
chain: QVWSSGVFELKLQEFVNKKGLLGNRNCCRGGAGPPPCACRTFFRVCLKHYQASVSPEPPCTYGSAVTPVLGVDSFSLPDGGGADSAFSNPIRFPFGFTWPGTFSLIIEALHTDSPDDLATENPERLISRLATQRHLTVGEEWSQDLHSSGRTDLKYSYRFVCDEHYYGEGCSVFCRPRDDAFGHFTCGERGEKVCNPGWKGPYCTEPICLPGCDEQHGFCDKPGECKCRVGWQGRYCDECIRYPGCLHGTCQQPWQCNCQEGWGGLFCNQDLNYCTHHKPCKNGATCTNTGQGSYTCSCRPGYTGATCELGIDECDPSPCKNGGSCTDLENSYSCTCPPGFYGKICELSAMTCADGPCFNGGRCSDSPDGGYSCRCPVGYSGFNCEKKIDYCSSSPCSNGAKCVDLGDAYLCRCQAGFSGRHCDDNVDDCASSPCANGGTCRDGVNDFSCTCPPGYTGRNCSAPVSRCEHAPCHNGATCHERGHRYVCECARGYGGPNCQFLLPELPPGPAVVDLTEKLEGQGGPFPW
modifications: left off: small tags and cut ends
notes: soluble non-transmembrane form (extracellular domain) of the Notch ligand Delta1
For B1, in assay [1], the “G (glial only) colonies” value worked out at 72 ± 6.4, the “G + Sm colonies” value was 3.4 ± 2.8, the “N (neurons only) colonies” value amounted to 0 and the “N + G + Sm (trifatent) colonies” value was found to be 0.5 ± 0.7. In assay [1], the “N + G colonies” value came out at 0; the “N + Sm colonies” value was 0; the “Sm (smooth muscle only) colonies” value is recorded as 20.5 ± 6.5; the “clones that were trifatent” value is reported as 0.5%. The “Secondary NSSC/ Founder” value in assay [1] stood at 0.6 ± 1.0. In addition, in assay [2], the “F/SP × 10^2” value was determined as 2.0%, the “Cells/Founder (F)” value was 150 ± 69*, the “Secondary Spheres (SP)” value was 3 ± 3 and the “secondary spheres per primary sphere” value is on record as 3±3. For the same molecule, the “exposure time after which GFAP immunoreactive cells were detected” value in assay [3] (NCSC populations) was determined as 48 h. Further, the “NCSC clones not expressing gliogenic or neurogenic differentiation markers” value in assay [3] is listed as 0±0%. In assay [4], the “expression … in NCSC” value is “did not influence the steady-state levels of the FGF1.A transcript”. The “levels of Nestin” value in assay [5] was “sharply decreased”.

For the origin of these results see patent publication US20060084599A1, “Compositions, methods and kits relating to notch signaling” (Maine Medical Center, priority 2003, published 2006).
